Data published in ChEMBL document CHEMBL5113372, “Paradigm shift of "classical" HDAC inhibitors to "hybrid" HDAC inhibitors in therapeutic interventions” (Eur J Med Chem, 2021).

How the values were obtained:
[1] = target: 72 kDa type IV collagenase (Homo sapiens, UniProt P08253); assay: Inhibition of MMP2 (unknown origin) using chromogenic substrate incubated for 1 hr followed by substrate addition measured for 30 mins by microplate photometry
Histone deacetylase 8 = target: T1, Histone deacetylase 8 (Homo sapiens, UniProt Q9BY41); assay: Inhibition of recombinant human HDAC8 using Fluor-de-lys substrate by fluorescence based microplate reader analysis
T1 sequence (Q9BY41 whole entry): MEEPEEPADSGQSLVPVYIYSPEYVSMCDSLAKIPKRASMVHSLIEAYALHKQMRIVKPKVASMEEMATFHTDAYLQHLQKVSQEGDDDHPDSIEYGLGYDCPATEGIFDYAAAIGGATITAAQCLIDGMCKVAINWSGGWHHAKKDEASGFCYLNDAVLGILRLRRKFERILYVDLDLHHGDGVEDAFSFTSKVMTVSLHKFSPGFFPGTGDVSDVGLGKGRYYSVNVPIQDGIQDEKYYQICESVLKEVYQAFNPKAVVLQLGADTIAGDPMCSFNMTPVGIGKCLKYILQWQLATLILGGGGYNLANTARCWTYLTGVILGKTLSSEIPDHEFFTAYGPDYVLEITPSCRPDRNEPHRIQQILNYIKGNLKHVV

Histone deacetylase 1 [2] = target: T2, Histone deacetylase 1 (Homo sapiens, UniProt Q13547); assay: Inhibition of HDAC1 (unknown origin)
T2 sequence (Q13547 whole entry): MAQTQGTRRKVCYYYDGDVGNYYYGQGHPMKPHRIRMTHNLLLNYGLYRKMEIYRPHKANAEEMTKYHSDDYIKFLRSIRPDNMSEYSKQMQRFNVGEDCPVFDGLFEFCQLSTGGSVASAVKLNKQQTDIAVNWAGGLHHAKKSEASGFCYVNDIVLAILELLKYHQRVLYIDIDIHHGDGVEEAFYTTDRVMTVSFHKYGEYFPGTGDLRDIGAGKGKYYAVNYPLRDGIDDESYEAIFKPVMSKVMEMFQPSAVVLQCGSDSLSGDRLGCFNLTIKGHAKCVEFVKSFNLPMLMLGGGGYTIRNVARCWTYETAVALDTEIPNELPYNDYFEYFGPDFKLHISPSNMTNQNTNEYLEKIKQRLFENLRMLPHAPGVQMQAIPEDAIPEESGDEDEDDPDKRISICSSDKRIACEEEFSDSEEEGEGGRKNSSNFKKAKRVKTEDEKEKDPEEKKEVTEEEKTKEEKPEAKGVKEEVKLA

[3] = target: High affinity cGMP-specific 3',5'-cyclic phosphodiesterase 9A (Homo sapiens, UniProt O76083); assay: Inhibition of PDE9 (unknown origin)
Chain of High affinity cGMP-specific 3',5'-cyclic phosphodiesterase 9A (O76083 whole entry): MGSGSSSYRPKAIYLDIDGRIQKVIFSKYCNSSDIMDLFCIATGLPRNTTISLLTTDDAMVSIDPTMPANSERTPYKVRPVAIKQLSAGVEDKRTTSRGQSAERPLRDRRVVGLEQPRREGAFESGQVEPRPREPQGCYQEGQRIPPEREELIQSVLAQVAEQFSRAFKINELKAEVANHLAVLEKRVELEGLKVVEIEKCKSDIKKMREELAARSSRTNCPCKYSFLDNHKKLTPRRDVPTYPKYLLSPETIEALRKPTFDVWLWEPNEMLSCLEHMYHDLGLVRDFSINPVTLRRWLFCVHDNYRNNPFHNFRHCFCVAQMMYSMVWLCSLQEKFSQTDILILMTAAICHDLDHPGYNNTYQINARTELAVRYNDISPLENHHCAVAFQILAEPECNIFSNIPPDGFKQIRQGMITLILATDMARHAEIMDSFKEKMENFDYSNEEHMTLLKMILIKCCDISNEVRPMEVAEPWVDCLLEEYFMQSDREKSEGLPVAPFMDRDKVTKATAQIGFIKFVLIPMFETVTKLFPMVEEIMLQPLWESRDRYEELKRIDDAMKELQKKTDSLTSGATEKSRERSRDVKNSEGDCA

Histone deacetylase 2 [4] = target: T3, Histone deacetylase 2 (Homo sapiens, UniProt Q92769); assay: Inhibition of HDAC2 (unknown origin)
T3 sequence (Q92769 whole entry): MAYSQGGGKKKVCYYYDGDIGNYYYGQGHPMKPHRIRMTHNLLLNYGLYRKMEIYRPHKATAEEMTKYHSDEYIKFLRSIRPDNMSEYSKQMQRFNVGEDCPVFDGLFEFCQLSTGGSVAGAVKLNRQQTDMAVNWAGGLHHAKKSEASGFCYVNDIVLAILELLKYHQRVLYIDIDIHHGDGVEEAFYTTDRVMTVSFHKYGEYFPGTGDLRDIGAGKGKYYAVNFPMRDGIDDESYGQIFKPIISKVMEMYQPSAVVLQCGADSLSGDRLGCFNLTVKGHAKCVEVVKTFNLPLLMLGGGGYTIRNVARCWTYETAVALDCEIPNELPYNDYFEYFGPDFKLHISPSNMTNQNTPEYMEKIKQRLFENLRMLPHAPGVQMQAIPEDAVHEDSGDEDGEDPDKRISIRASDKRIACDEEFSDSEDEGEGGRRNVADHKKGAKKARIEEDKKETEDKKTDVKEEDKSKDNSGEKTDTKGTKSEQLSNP

[5] = target: T4, Protein deacetylase HDAC6 (Homo sapiens, UniProt Q9UBN7); assay: Inhibition of HDAC6 (unknown origin)
T4 sequence (Q9UBN7 whole entry): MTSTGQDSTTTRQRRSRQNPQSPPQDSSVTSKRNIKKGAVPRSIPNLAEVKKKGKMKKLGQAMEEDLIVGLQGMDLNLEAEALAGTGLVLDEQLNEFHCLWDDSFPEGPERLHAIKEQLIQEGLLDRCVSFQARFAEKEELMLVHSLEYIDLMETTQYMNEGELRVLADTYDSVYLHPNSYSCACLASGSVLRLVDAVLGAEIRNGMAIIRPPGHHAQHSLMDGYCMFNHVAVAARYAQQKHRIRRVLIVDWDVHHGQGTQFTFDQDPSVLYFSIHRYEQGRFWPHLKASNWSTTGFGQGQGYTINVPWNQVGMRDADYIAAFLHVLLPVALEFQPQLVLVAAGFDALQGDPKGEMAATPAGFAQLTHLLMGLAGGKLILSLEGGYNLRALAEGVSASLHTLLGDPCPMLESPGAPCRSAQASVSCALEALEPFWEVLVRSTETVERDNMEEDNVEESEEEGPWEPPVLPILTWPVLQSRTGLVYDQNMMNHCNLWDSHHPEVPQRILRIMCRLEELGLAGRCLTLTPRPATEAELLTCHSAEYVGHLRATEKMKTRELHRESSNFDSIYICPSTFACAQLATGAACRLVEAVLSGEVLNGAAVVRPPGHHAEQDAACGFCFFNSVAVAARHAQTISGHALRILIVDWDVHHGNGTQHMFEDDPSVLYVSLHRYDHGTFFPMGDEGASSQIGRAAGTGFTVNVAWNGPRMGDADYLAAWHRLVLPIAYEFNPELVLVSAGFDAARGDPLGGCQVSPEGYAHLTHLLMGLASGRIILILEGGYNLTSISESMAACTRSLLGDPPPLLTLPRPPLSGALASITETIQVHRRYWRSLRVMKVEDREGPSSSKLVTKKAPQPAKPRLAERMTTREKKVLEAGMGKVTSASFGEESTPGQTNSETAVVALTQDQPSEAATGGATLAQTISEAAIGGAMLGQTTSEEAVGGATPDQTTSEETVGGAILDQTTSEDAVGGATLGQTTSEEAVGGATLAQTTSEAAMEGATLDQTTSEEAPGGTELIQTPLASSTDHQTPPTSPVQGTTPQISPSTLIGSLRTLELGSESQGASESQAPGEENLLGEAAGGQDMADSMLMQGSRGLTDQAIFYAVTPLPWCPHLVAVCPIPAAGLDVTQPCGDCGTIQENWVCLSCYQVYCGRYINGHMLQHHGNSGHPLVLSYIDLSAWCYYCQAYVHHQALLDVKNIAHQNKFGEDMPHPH

[6] = Inhibition of PDE5 (unknown origin); design: species or system Homo sapiens
[7] = target: cGMP-specific 3',5'-cyclic phosphodiesterase (Homo sapiens, UniProt O76074); assay: Inhibition of PDE5A (unknown origin)
[8] = target: Protein kinase C alpha type (Mus musculus, UniProt P20444); assay: Binding affinity to mouse PKC-alpha assessed as inhibition constant
A549 [9] = assay: Antiinvasive activity against human A549 cells assessed as reduction in cell invasion incubated for 24 hrs by microplate reader analysis relative to control; type: functional; design: scale not given: the % may be the effect or the level left
Histone deacetylase 1 [10] = target: T2, Histone deacetylase 1; assay: Inhibition of recombinant human HDAC1 expressed in baculovirus infected Hi-5 insect cells using Ac-Lys-Tyr-Lys (epsilon-acetyl)-AMC as substrate incubated for 3 to 24 hrs by fluorescence based plate reader analysis
Histone deacetylase 3 = Histone deacetylase 3 (Homo sapiens, UniProt O15379); assay: Inhibition of recombinant human HDAC3 expressed in baculovirus infected Hi-5 insect cells using Ac-Lys-Tyr-Lys (epsilon-acetyl)-AMC as substrate incubated for 3 to 24 hrs by fluorescence based plate reader analysis
Chain of Histone deacetylase 3 (O15379 whole entry): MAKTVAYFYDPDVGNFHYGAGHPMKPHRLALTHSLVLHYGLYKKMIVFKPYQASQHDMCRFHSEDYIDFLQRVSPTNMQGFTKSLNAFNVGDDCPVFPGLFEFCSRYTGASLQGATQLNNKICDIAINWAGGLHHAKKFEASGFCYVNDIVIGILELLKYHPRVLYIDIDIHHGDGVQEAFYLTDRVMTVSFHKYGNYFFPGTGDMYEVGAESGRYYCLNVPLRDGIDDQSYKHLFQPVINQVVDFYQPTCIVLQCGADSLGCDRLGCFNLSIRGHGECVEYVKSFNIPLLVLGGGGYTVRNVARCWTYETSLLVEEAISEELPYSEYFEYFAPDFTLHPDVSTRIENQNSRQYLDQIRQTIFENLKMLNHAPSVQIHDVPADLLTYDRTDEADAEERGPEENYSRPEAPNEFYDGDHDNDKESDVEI

A549 [11] = assay: Cytotoxicity against human A549 cells assessed as inhibition of cell proliferation incubated for 72 hrs by MTT assay; type: functional, cell-based; conditions: A549, 72 h
HCT-116 = assay: Cytotoxicity against human HCT-116 cells assessed as inhibition of cell proliferation incubated for 72 hrs by MTT assay; type: functional, cell-based; conditions: HCT-116, 72 h
Histone deacetylase 2 [12] = target: T3, Histone deacetylase 2; assay: Inhibition of recombinant human HDAC2 expressed in baculovirus infected Hi-5 insect cells using Ac-Lys-Tyr-Lys (epsilon-acetyl)-AMC as substrate incubated for 3 to 24 hrs by fluorescence based plate reader analysis
DU-145 [13] = assay: Anti-proliferative activity against human DU-145 cells assessed as cell growth inhibition measured after 72 hrs by SRB assay; type: functional, cell-based; conditions: DU-145, 72 h
Histone deacetylase = assay: Inhibition of pan-HDAC (unknown origin); type: protein assay, Homo sapiens
[14] = target: Phosphatidylinositol 4,5-bisphosphate 3-kinase catalytic subunit alpha isoform (Homo sapiens, UniProt P42336); assay: Inhibition of PI3K-alpha (unknown origin)
Chain of Phosphatidylinositol 4,5-bisphosphate 3-kinase catalytic subunit alpha isoform (P42336 whole entry, canonical isoform): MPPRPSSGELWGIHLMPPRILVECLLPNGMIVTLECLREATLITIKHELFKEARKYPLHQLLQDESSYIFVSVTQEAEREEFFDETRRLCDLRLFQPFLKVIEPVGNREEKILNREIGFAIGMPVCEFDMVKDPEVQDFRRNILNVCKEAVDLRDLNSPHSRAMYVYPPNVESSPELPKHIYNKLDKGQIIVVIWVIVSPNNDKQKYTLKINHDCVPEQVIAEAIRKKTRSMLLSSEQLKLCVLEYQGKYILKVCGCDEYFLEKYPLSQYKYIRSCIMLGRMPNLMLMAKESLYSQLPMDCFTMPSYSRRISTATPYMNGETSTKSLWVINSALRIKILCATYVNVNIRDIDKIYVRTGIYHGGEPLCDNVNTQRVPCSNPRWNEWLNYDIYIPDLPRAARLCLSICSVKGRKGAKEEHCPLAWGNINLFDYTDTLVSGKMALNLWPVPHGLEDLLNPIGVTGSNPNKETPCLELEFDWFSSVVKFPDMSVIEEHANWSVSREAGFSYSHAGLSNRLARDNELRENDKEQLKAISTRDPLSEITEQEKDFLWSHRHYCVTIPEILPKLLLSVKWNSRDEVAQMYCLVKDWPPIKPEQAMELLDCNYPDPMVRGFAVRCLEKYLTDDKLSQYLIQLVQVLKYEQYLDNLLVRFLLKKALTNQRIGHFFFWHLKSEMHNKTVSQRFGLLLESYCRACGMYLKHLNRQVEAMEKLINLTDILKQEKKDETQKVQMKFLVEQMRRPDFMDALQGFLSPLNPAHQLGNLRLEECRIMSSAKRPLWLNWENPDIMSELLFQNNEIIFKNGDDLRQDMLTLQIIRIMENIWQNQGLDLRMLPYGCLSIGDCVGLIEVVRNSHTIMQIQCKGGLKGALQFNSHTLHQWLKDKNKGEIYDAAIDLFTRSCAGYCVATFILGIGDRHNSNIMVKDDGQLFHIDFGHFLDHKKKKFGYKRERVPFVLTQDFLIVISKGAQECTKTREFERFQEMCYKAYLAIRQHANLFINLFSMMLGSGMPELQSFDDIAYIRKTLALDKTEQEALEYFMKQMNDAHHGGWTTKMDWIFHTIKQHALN

DU-145 [15] = assay: Antiproliferative activity against human DU-145 cells assessed as cell growth inhibition incubated for 48 hrs by MTT assay; type: functional, cell-based; conditions: DU-145, 48 h
HepG2 = assay: Antiproliferative activity against human HepG2 cells assessed as cell growth inhibition incubated for 48 hrs by MTT assay; type: functional, cell-based; conditions: HepG2, 48 h
Histone deacetylase 1 [16] = target: T2, Histone deacetylase 1; assay: Inhibition of full-length recombinant human HDAC1 expressed in baculovirus infected Hi-5 insect cells using AcLys-Tyr-Lys(e-acetyl)-AMC as substrate incubated for 24 hrs by enzymatic assay
K562 = assay: Antiproliferative activity against human K562 cells assessed as cell growth inhibition incubated for 48 hrs by MTT assay; type: functional, cell-based; conditions: K562, 48 h
[17] = target: T4, Protein deacetylase HDAC6; assay: Inhibition of His-tagged recombinant human HDAC6 expressed in baculovirus infected insect cells using Boc-Lys(Ac)-AMC as substrate preincubated for 5 mins followed by substrate addition measured after 30 mins by fluorescence based assay
DU-145 [18] = assay: Inhibition of colony formation in human DU-145 cells incubated for 10 days by crystal violet method; type: functional, cell-based; conditions: DU-145, 240 h
Histone deacetylase 1 [19] = target: T2, Histone deacetylase 1; assay: Inhibition of His-tagged recombinant human HDAC1 (482 residues) expressed in baculovirus infected insect cells using FLUOR DE LYS-SIRT1 as substrate preincubated for 5 mins followed by substrate addition measured after 30 mins by fluorescence based assay
PC-3 = assay: Inhibition of colony formation in human PC-3 cells incubated for 10 days by crystal violet method; type: functional, cell-based; conditions: PC-3, 240 h

Chain of 72 kDa type IV collagenase (P08253 whole entry): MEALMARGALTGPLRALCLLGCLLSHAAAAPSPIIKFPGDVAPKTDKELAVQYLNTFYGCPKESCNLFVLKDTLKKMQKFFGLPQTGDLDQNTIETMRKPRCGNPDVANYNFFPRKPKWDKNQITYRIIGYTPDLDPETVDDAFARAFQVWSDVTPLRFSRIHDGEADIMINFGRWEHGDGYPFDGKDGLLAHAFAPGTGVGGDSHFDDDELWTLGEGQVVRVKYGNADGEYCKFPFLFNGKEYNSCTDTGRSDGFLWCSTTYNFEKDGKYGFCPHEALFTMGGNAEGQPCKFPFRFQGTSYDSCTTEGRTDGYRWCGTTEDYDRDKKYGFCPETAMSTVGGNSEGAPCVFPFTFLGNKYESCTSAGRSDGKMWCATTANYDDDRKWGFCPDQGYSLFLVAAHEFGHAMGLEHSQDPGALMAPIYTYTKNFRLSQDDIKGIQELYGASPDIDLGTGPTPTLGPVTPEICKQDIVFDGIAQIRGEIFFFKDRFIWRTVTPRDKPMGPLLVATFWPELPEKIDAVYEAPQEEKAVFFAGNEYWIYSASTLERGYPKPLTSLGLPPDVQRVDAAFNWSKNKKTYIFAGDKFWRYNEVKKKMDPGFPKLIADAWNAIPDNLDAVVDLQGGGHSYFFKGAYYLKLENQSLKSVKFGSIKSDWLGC

In the case of COc1ccc(CC(=O)N[C@@H](CCC(=O)O)C(=O)NCc2ccccc2)cc1, the IC50 [1] is reported as 83.7 µM and the IC50 (Histone deacetylase 8) is reported as 3.8 µM.

With C[C@H]1CN(Cc2ccc(/C=C/C(=O)NO)cc2)C[C@@H]1c1nc2c(cnn2C2CCOCC2)c(=O)[nH]1 the IC50 (Histone deacetylase 1 [2]) was 0.138 µM, the IC50 [3] was 0.008 µM and the IC50 (Histone deacetylase 2 [4]) was 1.25 µM. For the same compound, the IC50 [5] was 0.508 µM and the IC50 [6] was greater than 10 µM.

CCCc1nn(C)c2c(=O)[nH]c(-c3cc(Cc4ccc(C(=O)Nc5ccccc5N)cc4)ccc3OCC)nc12 showed an IC50 (Histone deacetylase 1 [2]) of 0.673 µM, an IC50 (Histone deacetylase 2 [4]) greater than 20 µM and an IC50 [7] of 0.114 µM. The IC50 [5] was greater than 20 µM.

CC(=O)SCCCCCCOc1ccc2c(c1)N(C)[C@@H](C(C)C)C(=O)N[C@H](CO)C2 showed a Ki [8] of 0.0087 µM.

For O=C(O)CC[C@H](NC(=O)Cc1ccc(Br)cc1)C(=O)NCc1ccccc1, the IC50 [1] was 19.6 µM, the Activity (A549 [9]) was 34% and the IC50 (Histone deacetylase 8) was 3.03 µM.

Compound COc1cc([C@@H]2c3cc4c(cc3C[C@H]3COC(=O)[C@@H]32)OCO4)cc(OC)c1OC(=O)CC(=O)NCc1ccc(C(=O)Nc2ccccc2N)cc1 has an IC50 (Histone deacetylase 1 [10]) of 11.1 µM, an IC50 (Histone deacetylase 3) of 1 µM and an IC50 (A549 [11]) of 0.036 µM. For the same compound, the IC50 (HCT-116) was 0.037 µM and the IC50 (Histone deacetylase 2 [12]) was 1.73 µM.

With CC[C@@]1(O)C(=O)OCc2c1cc1n(c2=O)Cc2cc3ccccc3nc2-1 [CAMPTOTHECIN] the IC50 (DU-145 [13]) was 0.07 µM and the IC50 (Histone deacetylase) was 0.05 µM.

Compound O=C(NO)c1ccc(/C=N/NC(=O)c2cc(N3CCOCC3)nc(-c3cccc(O)c3)n2)cc1 has an IC50 [5] of 0.0153 µM and an IC50 [14] of 0.0463 µM.

Work on CCN1CCN(c2cc(Nc3ncc(C(=O)Nc4ccc(F)cc4N)s3)ncn2)CC1 yielded an IC50 (DU-145 [15]) of 0.6 µM, an IC50 (HepG2) of 10.4 µM and an IC50 (Histone deacetylase 1 [16]) of 0.81 µM. The IC50 (K562) was 2.26 µM.

For O=C(CCCCCNC(=O)c1cccc2cc3ccccc3nc12)NO, the IC50 [17] was 0.0022 µM, the IC50 (DU-145 [18]) was 0.16 µM and the IC50 (Histone deacetylase 1 [19]) was 0.0166 µM. It also gave an IC50 (PC-3) of 0.31 µM.

With C[C@@H](c1nc2c(cnn2C2CCCC2)c(=O)[nH]1)N1CC(Cc2ccc(C(=O)Nc3ccccc3N)cc2)C1 the IC50 (Histone deacetylase 1 [2]) was 0.099 µM, the IC50 [3] was 0.057 µM and the IC50 (Histone deacetylase 2 [4]) was 0.545 µM. The IC50 [5] was greater than 10 µM and the IC50 [6] was greater than 10 µM.
